Patent US9650674B2, “Nucleic acid probes and methods of using the same” (Board of Trustees University of Arkansas, priority 2012, dated 2017)
{Cy5.5} = Cy5.5 near-infrared fluorophore label at the ends

How the values were obtained:
DNase I [1] = target: T1, DNase I (Homo sapiens, UniProt P24855); experiment: DNase I endonuclease activity measured with AB259.3 probe in presence of inhibitors; type: biochemical; settings: 1 μg/ml DNase I; EDTA 200 μM; FIG. 2D
T1 construct: purchased Sigma (St. Louis, Mo.)
T1 sequence (P24855 23-282): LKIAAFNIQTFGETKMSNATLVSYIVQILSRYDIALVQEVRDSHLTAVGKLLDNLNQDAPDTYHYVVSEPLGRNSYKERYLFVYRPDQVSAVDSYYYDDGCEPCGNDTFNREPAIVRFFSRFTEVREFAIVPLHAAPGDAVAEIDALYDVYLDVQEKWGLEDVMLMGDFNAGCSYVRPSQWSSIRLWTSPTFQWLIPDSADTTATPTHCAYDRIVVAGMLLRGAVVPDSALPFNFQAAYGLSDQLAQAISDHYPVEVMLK
Method: (§1) To detect specificity of the assay to DNase I that is a Ca/Mg-dependent endonuclease, AB259.3 probe was tested with 1 μg/ml DNase I in the presence of Ca++ and Mg++ (EAA buffer), in absence of the cations (deionized water), or in excess of EDTA (200 μM). […] Finally, it was tested whether AB259.3 probe will detect inhibition of DNase I activity by DNase I inhibitors such as ZnCl2 and Zn-diisopropyl salicylate (Zn-DIPS).
(§2) All cell-free experiments were performed using the Bio-Tek Synergy 5 fluorescent plate reader. Before experiments, optimal excitation and emission wavelengths were determined. For this, excitation and emission were scanned in the ranges of 600-680 nm and 690-705 nm, respectively. The optimal excitation/emission was determined to be 665/703 nm. All kinetic and endpoint measurements were done in a total volume of 100 μl at 37° C. Unless stated otherwise, DNA substrate was used in final concentration 0.5 μM reconstituted in endonuclease activity assay (EAA) buffer (2 mM CaCl2, 5 mM MgCl2, 10 mM Tris-HCl, pH 7.4) in a 96-well plate. After measurement of starting fluorescence, DNase I or tested material (diluted 1:20 urine or 1:100 serum) were added to the reconstituted probe, rapidly mixed and fluorescence was monitored for up to 60 min with 30-sec intervals. In some instances, EDTA (final concentration 200 μM) or NaOH (50 mM) was added to terminate the reaction. For the experiments that involved assessment of fluorescence after DNA denaturing, probes were tested in Cepheid real-time PCR system using Cy5 setting (Sunnyvale, Calif.).

[2] = system: wild-type (WT) mouse kidney cryosections; experiment: Endonuclease activity ex vivo in kidney cryosections; settings: FIG. 5C
Method: Next it was examined whether AB259.3 probe can be used for measurement of endonuclease activity in tissue sections. Kidneys were used because they are known for high activity of DNase I (Ca/Mg-dependent endonuclease). Freshly prepared 10 μm thick cryosections of wild-type (WT) mouse kidney were exposed with 5 μM AB259.3 probe in presence of EAA buffer at 37° C. and time-lapse imaged for 10 min with 1-min intervals.
Specimens of kidney, liver, spleen and testis tissues were removed from euthanized mice, immersed in OCT medium, rapidly frozen by Fisher Freeze-it and kept on dry ice for no longer than 1 hour prior slicing. Tissue cryosections (8-μm thick) were prepared using the Microm HM 505E cryotome, placed to the Fisher Plus slides and immediately exposed with 0.5 μM AB259.3 probe diluted in EAA buffer. In control samples, applied probe contained EAA buffer supplemented with 200 μM EDTA. Images were taken in 628/40-692/40 spectrum every 30 sec for 10 min in 10 random XY coordinates. Three sections from each specimen were analyzed separately. Maximal velocity of increasing fluorescence was averaged for each section.

NRK-52E cells = experiment: Intracellular endonuclease activity in cultured cells, time-lapse microscopy; type: cell-based, rat; settings: 25 μM cisplatin or 50 μM camptothecin for 8 hours; FIGS. 4B and 4C
Method: To test whether AB259.3 probe may be delivered intracellularly and thus be used as an indicator of endonuclease activity in live cells, NRK-52E cells were transfected with of AB259.3/Lipofectamine LTX complexes and imaged by time-lapse epifluorescence microscopy every 10 min for 8 hours. A 2.5-3 times increased fluorescence reached plateau in 1 hour after transfection and the cells retained fluorescent dye for the duration of experiment (FIG. 4A). To induce activity of endonucleases, cells were treated with cisplatin or camptothecin and imaged by time-lapse microscopy for Cy5.5 fluorescence. […] Therefore, it was concluded that AB259.3 can be delivered and used for intracellular monitoring of endonuclease activity in live cells. To further determine whether AB259.3 probe can be used in other cell lines, several of them were tested (FIG. 4D). […] It was then determined whether the probe without the loop would be consumed by NRK-52E cells equally to the original loop probe. […] Finally, PCR was used to determine whether the DNA part (as opposed to the fluorophores) of the probes enters the cells in vivo and in vitro.
Rat proximal tubular epithelial NRK-52E cells were used to test the ability of AB259.3 probe to measure endonuclease activity. The cells were seeded in a 24-well plate at 50,000 cells per well in complete DMEM medium supplemented with 10% fetal bovine serum. Cells were transfected with the AB259.3 probe using Lipofectamin LTX and then subjected to spinning disk confocal fluorescent time-lapse microscopy in 628/40-692/40 spectrum every 10 min for 8 hours using Olympus IX-81 image system equipped with Hamamatsu ORCA-ER camera and LiveCell microenvironmental control chamber (Pathology Devices Inc., Westminster, Md.). In separate experiment, cells were treated with either 25 μM cisplatin or 50 μM camptothecin for 8 hours, followed by 1-hour transfection with AB259.3 probe and 8-hour time-lapse imaging session with 10-min intervals using the same microscopy system.

[3] = Baseline fluorescence of hairpin DNA probes; type: physicochemical; settings: FIG. 1B
From the text: It was impossible to determine if the background fluorescence was attributed to the probe or it originated from a partial degradation of the probe. Consequently, the NIRF probes were designed as hairpins to allow testing the integrity of DNA by its denaturing followed by reannealing. The use of hairpin also allows easy measurement of the maximum fluorescence of the probe. The distance between two fluorophores varied by changing of protruding DNA strand length from +0 (AB259.1 probe) to +5 (AB259.3 probe) or to +10 (AB259.5 probe) as shown in FIG. 1A. The baseline fluorescence of probe AB259.1 was 30% higher than negative control without a probe (FIG. 1B).
as §2

[4] = Heat denaturing and reannealing of hairpin probes (probe integrity); type: physicochemical; settings: ROX internal reference; above background; FIG. 1C
Method: To ensure the integrity of the DNA probes, it was tested whether a heat denaturing of the hairpins would cause an increase in fluorescence, and if a reannealing would reverse it. To compensate for thermal change of fluorophore's emission, the ROX fluorophore was added to tested probes as an internal reference.
as §2

[5] = Alkaline denaturing of probes, kinetic fluorescence; type: physicochemical; settings: alkaline buffer
Method: Lastly, the probes' integrity was tested by alkaline denaturing. The probes were treated with alkaline buffer and kinetic detection of the fluorescence was performed. […] AB259.1, AB259.3 and AB259.5 gained 40%, 81%, and 85% of fluorescence, respectively.
as §2

DNase I [6] = target: T1, DNase I; experiment: Kinetic fluorescence of probes exposed to DNase I in vitro; type: biochemical; settings: probe 0.5 μM, DNase I 1 μg/ml; for gain of fluorescence compared to baseline: twenty min into the reaction, FIG. 2B
Method: It was hypothesized that exposure of the probes to endonucleases would lead to DNA cleavage and dissociation of protruded strand from the hairpin (FIG. 2A). To assess which of the proposed probes is the best to measure endonuclease activity, the probes (0.5 μM) were exposed with recombinant human DNase I (1 μg/ml) and the kinetic fluorescence curves were recorded. Twenty min into the reaction, AB259.1, AB259.3 and AB259.5 gained 1.75-, 2.6- and 1.62-fold fluorescence, respectively, compared to the baseline (FIG. 2B). At 20-25 min, AB259.1 and AB259.3 reached the plateaus. […] Therefore, AB259.3 was chosen for further experiments.
as §1, §2

WT and DNase I KO mice = experiment: Intravital imaging of endonuclease activity in kidneys; settings: 5 μl DNase I (0.1 mg/ml) subcapsular, left kidney, then AB259.3 50 nmol/kg i.v.; FIGS. 7F and 7G
From the text: At the next step, WT and DNase I KO mice were anesthetized and intravenously administered with 50 nmol/kg of AB259.3 probe followed by intravital imaging using Xenogen-IVIS.
To additionally confirm preferential accumulation and processing of AB259.3 probe in kidneys, separate set of mice was deeply anesthetized and subjected to abdominal incision and real-time intravital visualization of left kidney while performing intravenous injection of AB259.3 probe. […] For this, DNase I KO animals were subjected to open surgery that was used to administer 5 μl DNase I (0.1 mg/ml) to subcapsular space of upper ventral zone of left kidney. To control effect of DNase I, additional WT and DNase I KO mice were injected with same volume of the vehicle. Immediately after injection, mice were injected with 50 nmol/kg of AB259.3 probe intravenously and then imaged in a Xenogen-IVIS.
Male DNase I KO mice and their WT counterparts at the age 8-10 weeks were used for all experiments. All procedures with mice were performed under general anesthesia with 50 mg/kg ketamine. For subcutaneous administration, mice were injected with 10 μl of 0.1 μM AB259.3 in the dorsal subcutaneous site. For systemic visualization, AB259.3 was injected intravenously at 50 nmol/kg in tail vein.
Imaging of live and euthanized mice or their isolated organs were performed using Xenogen IVIS Image System 200 (Caliper Life Sciences, Hopkinton, Mass.) equipped with Living Image® Software.

O=C(O)CN(CCN(CC(=O)O)CC(=O)O)CC(=O)O [EDTA, reference compound]
effect on DNase I activity detected by AB259.3 fluorescence (DNase I [1]): inhibited | effect of EDTA on fluorescence increase in cryosections [2]: the increase of fluorescence was prevented

CC(C)c1cc(C(=O)O)c([O-])c(C(C)C)c1.CC(C)c1cc(C(=O)O)c([O-])c(C(C)C)c1.[Zn+2] [Zn-DIPS, zinc-diisopropyl salicylate]
effect on DNase I activity detected by AB259.3 fluorescence (DNase I [1]): suppressed

[Cl-].[Cl-].[Zn+2] [ZnCl2, zinc chloride]
effect on DNase I activity detected by AB259.3 fluorescence (DNase I [1]): suppressed

CC[C@@]1(O)C(=O)OCc2c1cc1n(c2=O)Cc2cc3ccccc3nc2-1 [camptothecin, reference compound]
induction of endonuclease activity (Cy5.5 fluorescence of AB259.3 in treated cells) (NRK-52E cells): significant increase of fluorescence

N.N.[Cl][Pt][Cl] [cisplatin, reference compound]
induction of endonuclease activity (Cy5.5 fluorescence of AB259.3 in treated cells) (NRK-52E cells): significant increase of fluorescence

[Cy5.5]AACACTCCGATGAGTGTAGAATGTACGAGT[Cy5.5] (DNA, 5' {Cy5.5}, 3' {Cy5.5}, backbone not given here; hairpin DNA probe) [AB259.5, hairpin DNA probe with Cy5.5 at both ends, protruding strand +10]
baseline fluorescence (in words) ([3]; correlated with length of protruded DNA end): much higher levels of the baseline fluorescence | gain of fluorescence on heat denaturing [4]: 1.8 times | gain of fluorescence on alkaline denaturing [5]: 85% | behaviour of fluorescence at 20-25 min (in words) (DNase I [6]): became variable and did not yield reliable gain of fluorescence thereafter | gain of fluorescence compared to baseline (DNase I [6]): 1.62 fold

[Cy5.5]AACACTCCGATGAGTGTA[Cy5.5] (DNA, 5' {Cy5.5}, 3' {Cy5.5}, backbone not given here; hairpin DNA probe) [AB259.1, hairpin DNA probe with Cy5.5 at both ends, protruding strand +0]
baseline fluorescence higher than negative control without a probe [3]: 30% | gain of fluorescence on heat denaturing [4]: 2.7 times | gain of fluorescence on alkaline denaturing [5]: 40% | gain of fluorescence compared to baseline (DNase I [6]): 1.75 fold

B1: DNase I: recombinant DNase I delivered to the kidneys of DNase I KO mice (protein, UniProt P24855 23-282, looked up)
Deoxyribonuclease-1: LKIAAFNIQTFGETKMSNATLVSYIVQILSRYDIALVQEVRDSHLTAVGKLLDNLNQDAPDTYHYVVSEPLGRNSYKERYLFVYRPDQVSAVDSYYYDDGCEPCGNDTFNREPAIVRFFSRFTEVREFAIVPLHAAPGDAVAEIDALYDVYLDVQEKWGLEDVMLMGDFNAGCSYVRPSQWSSIRLWTSPTFQWLIPDSADTTATPTHCAYDRIVVAGMLLRGAVVPDSALPFNFQAAYGLSDQLAQAISDHYPVEVMLK
kidney Cy5.5 fluorescence of DNase I KO mice after subcapsular DNase I (WT and DNase I KO mice): Cy5.5 fluorescence comparable to WT mice
